In PubChem BioAssay (NCI):
Several values for one entry are separate records, joined by “and”; a condition that tells them apart may be missing. Equal values may be shown once.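 All cell lines were grown in 96-well plates and treated with compound for 48 hours. At the GI50, growth is halved. TGI: concentration producing complete growth inhibition.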

Columns and labels:
Assay in all cases: NCI tumour cell line growth inhibition, 48 h
ACHN renal = system: ACHN renal
HCT-116 colon = system: HCT-116 colon
HOP-62 NSCLC = system: HOP-62 NSCLC
M14 melanoma = system: M14 melanoma
MDA-MB-435 = system: MDA-MB-435
NCI-H226 lung = system: NCI-H226 lung
NCI-H23 lung = system: NCI-H23 lung
OVCAR-3 ovarian = system: OVCAR-3 ovarian
OVCAR-5 ovarian = system: OVCAR-5 ovarian
SK-MEL-5 melanoma = system: SK-MEL-5 melanoma

Compound	GI50 (ACHN renal)	TGI (ACHN renal)	GI50 (HCT-116 colon)	TGI (HCT-116 colon)	GI50 (HOP-62 NSCLC)	TGI (HOP-62 NSCLC)	GI50 (M14 melanoma)	TGI (M14 melanoma)	GI50 (MDA-MB-435)	TGI (MDA-MB-435)	GI50 (NCI-H226 lung)	TGI (NCI-H226 lung)	GI50 (NCI-H23 lung)	TGI (NCI-H23 lung)	GI50 (OVCAR-3 ovarian)	TGI (OVCAR-3 ovarian)	GI50 (OVCAR-5 ovarian)	TGI (OVCAR-5 ovarian)	GI50 (SK-MEL-5 melanoma)	TGI (SK-MEL-5 melanoma)
CCN1C(=O)N(CC)C2C1NN=c1s/c(=C3\C(=O)N(CC(C)(C)C)c4ccccc43)c(=O)n12 (centres undefined)	4.04 µM	18.1 µM	3.43 µM	14.5 µM	4.93 µM	22.8 µM	3.72 µM	20.7 µM	1.54 µM	7.1 µM	5.71 µM	28.1 µM	3.39 µM	14.5 µM	3.17 µM	12.1 µM	6.18 µM	21.4 µM	2.11 µM	5.21 µM
CCCCCOc1ccc(/C=N/Nc2cc(C)nc3ccc(Br)cc23)cc1	1.77 µM	3.17 µM	1.78 µM	3.36 µM	1.73 µM	3.37 µM	1.88 µM	3.53 µM	1.76 µM	3.18 µM	1.85 µM	4.32 µM	1.85 µM	3.82 µM	1.92 µM	3.37 µM	1.83 µM	3.28 µM	1.74 µM	3.16 µM
O=C(O)c1ccc(OCc2ccccc2)c(Cl)c1		> 100 µM		> 100 µM		> 100 µM		> 100 µM		> 100 µM		> 100 µM		> 100 µM		> 100 µM		> 100 µM		> 100 µM
COCC1(CO)C(=O)C2CCN1CC2 (centres undefined)	14.5 µM	28.7 µM	14.3 µM	27.9 µM	> 100 µM	> 100 µM	15.4 µM	31.6 µM	17.1 µM	32.8 µM	> 47.5 µM	> 71.9 µM	19.7 µM	46 µM	14.2 µM	29.4 µM	26.2 µM	> 55.7 µM	43.7 µM	> 77.7 µM
O=C(Nc1ccc(-n2ccc3c(NC(=O)c4ccccc4)nccc32)cc1)Nc1ccc(Cl)c(Cl)c1	1.22 µM	4.29 µM	0.488 µM	1.74 µM	1.31 µM	2.75 µM	1.47 µM	2.93 µM	1.31 µM	2.81 µM	15.9 µM	97.7 µM	5.2 µM	28.6 µM	1.34 µM	2.75 µM	3.52 µM	32.9 µM	0.748 µM	2.2 µM
O=C(c1ccc(/C=C/c2n[nH]c3ccccc23)cc1)N1CCNCC1	> 10 µM and 4.05 µM	> 10 µM and 25.3 µM	1.5 µM and 2.02 µM	2.88 µM and 20.9 µM	> 10 µM and 3.63 µM	> 10 µM and 19.3 µM	1.66 µM and 3.75 µM	3.22 µM and 16.9 µM	1.54 µM and 2.58 µM	2.9 µM and 15.5 µM	> 10 µM and 1.84 µM	> 10 µM and 8.66 µM	> 10 µM and 2.55 µM	> 10 µM and 16.9 µM	9.32 µM and 8.01 µM	> 10 µM and 24 µM	> 10 µM and 2.51 µM	> 10 µM and 26.1 µM	6.9 µM	18.5 µM
N=C(N)c1ccc2nc(-c3cc(CC(=O)N[C@@H](CC(=O)O)C(=O)O)cc(-c4cc(S(N)(=O)=O)ccc4O)c3O)[nH]c2c1	> 100 µM	> 100 µM	> 100 µM	> 100 µM	> 100 µM	> 100 µM	> 100 µM	> 100 µM	> 100 µM	> 100 µM	> 100 µM	> 100 µM	> 100 µM	> 100 µM	> 100 µM	> 100 µM	> 100 µM	> 100 µM	> 100 µM	> 100 µM
C=C1C(=O)OC2CC(C)C3(O)CCC(=O)C3(C)CC12 (centres undefined)		36.2 µM		99.4 µM		> 100 µM		55.6 µM		> 100 µM		> 100 µM		> 100 µM		46.5 µM		74.3 µM		> 100 µM
CC(=O)Oc1ccccc1C(=O)Nc1ncc([N+](=O)[O-])s1	2.74 µM	11.3 µM and > 100 µM	2.26 µM	9.55 µM and > 61.2 µM	4.45 µM	> 75.6 µM	2.54 µM	7.23 µM and 55.9 µM	2.13 µM	7.58 µM and 59.7 µM	2.62 µM	8.7 µM and 36.7 µM	1.8 µM	6.39 µM and > 63 µM	2.76 µM	13.1 µM and 36.6 µM	4.07 µM	> 100 µM	1.5 µM	3.7 µM and 33 µM
Cc1cc(C)c(NC(=O)c2sc3nc4c(cc3c2N)CN(Cc2ccccc2)CC4)c(C)c1	6.31 µM	> 100 µM	2.89 µM	16 µM	7.73 µM	> 100 µM	2.89 µM	31.5 µM	0.399 µM	4.38 µM	4.69 µM	> 100 µM	4.51 µM	> 100 µM	2.32 µM	12.6 µM	12.5 µM	> 100 µM	1.47 µM	11.5 µM
N#Cc1c(N/N=C/c2ccc(Cl)cc2Cl)nc(N)nc1N1CCCC1	24.5 µM	90.2 µM	20.9 µM	> 100 µM	15.2 µM	32.4 µM	44.2 µM	> 100 µM	62.2 µM	> 100 µM	15.7 µM	> 100 µM	38.5 µM	> 100 µM	25.5 µM	> 100 µM	24.6 µM	99.7 µM	21.5 µM	> 100 µM
CC(C)(S)C(N)C(=O)O (centres undefined)	> 5000 µM	> 5000 µM	1860 µM	> 5000 µM	> 5000 µM	> 5000 µM	4370 µM	> 5000 µM	1890 µM	> 5000 µM	> 5000 µM	> 5000 µM	1510 µM	> 5000 µM	1250 µM	3990 µM and > 100 µM	> 5000 µM	> 5000 µM	895 µM	2390 µM and > 100 µM
CC[C@H]1CN2CCc3cc(OC)c(OC)cc3[C@@H]2C[C@@H]1C[C@H]1NCCc2c1[nH]c1ccc(O)cc21	0.0782 µM and 0.121 µM	0.57 µM and 0.511 µM and 1.5 µM	0.0196 µM and 0.0409 µM	0.0475 µM and 0.207 µM and 0.195 µM	0.0264 µM and 0.0298 µM	0.0748 µM and 0.0941 µM and 0.0488 µM	0.0365 µM and 0.0275 µM	0.162 µM and 0.0729 µM and 0.0478 µM		0.261 µM	0.0282 µM and 0.0409 µM	0.0778 µM and 0.261 µM and 0.0326 µM	0.0177 µM and 0.0303 µM	0.0472 µM and 0.112 µM and 0.0706 µM	0.0156 µM	0.0622 µM and 0.089 µM and 0.25 µM	0.0246 µM and 0.0401 µM	0.091 µM and 0.335 µM and 0.379 µM	0.0234 µM and 0.14 µM	0.0553 µM and 0.294 µM and 0.0304 µM
